Measured values: patent US11607458B2 (Georgia State University Research Foundation, Inc, priority 2017, dated 2023)
Read-outs that look alike come from different tables or passages of the source.

Tests used:
[1] = HPLC studies of reaction kinetics of tetrazine prodrugs with cyclooctyne alkynes (Kobs, second-order rate constant k2); assay type: physicochemical; settings: alkyne 2b; 37° C.; PBS containing 10% DMSO; n = 3
Method: Stock solution preparation. Each of the tetrazine prodrugs (compounds 1b, 1c, and 1d) was dissolved in DMSO to afford a 500-μM stock solution. Each of the alkynes (compounds 2a, 2b, 2c, and 2d) was dissolved in DMSO to afford a 50-mM stock solution. Doxorubicin (Dox) and dansylamino compound (DA) 1.1b were each dissolved in DMSO to afford 1-mM stock solutions.
(§1) HPLC method A.: mobile phase A (10 mM NaH2PO4 in water, pH=5.0) and mobile phase B (ACN), flow rate: 1 mL/min, running time: 30 min, the gradient elution method: 25% B from 0 to 6 min, 25% to 50% B from 6 to 8 min, 50% B from 8 to 15 min, 50% to 99% B from 15 to 20 min, 99% B from 20 to 25 min, 99% to 25% B from 25 to 30 min. Detection wavelength: 256 nm. Column: Waters C18 3.5 μM, 4.6×100 mm. Injection volume: 20 μL.
as §1, with “method B:” for “method A.:”, “method: 30%” for “method: 25%”, “min, 30%” for “min, 25%”, “25 min.” for “25 min,”, “to 30%” for “to 25%”, “Detection wavelength 1: 256, detection wavelength 2: 337” for “Detection wavelength: 256”
General procedures HPLC studies of reaction kinetics. To three 20-ml vials with 9 mL PBS were added a solution of tetrazine prodrug (500 μL, 500 μM). 350 μL, 300 μL and 250 μL DMSO were added to vial respectively, and then 150 μL, 200 μL and 250 μL of the alkyne solution (50 mM in DMSO) were added to the vials to afford final concentrations of alkyne 0.75 mM, 1 mM and 1.25 mM in PBS (10% DMSO, 25 μM prodrug) respectively. The reaction was stirred at r.t or 37° C. respectively. Every 30 min about 500 μL reaction mixtures were taken out and 20 μL of them were injected into the HPLC by the autosampler; the rest of them were poured back to the reaction mixture. (Note: In the cases of prodrugs 1d or 1b reacting with alkyne 2d at 37° C., the final concentrations of 2d in the kinetic studies were 250 μM, 300 μM and 350 μM).
Determination of second-order rate constants. The reaction rate constant, kobs, was calculated for each concentration of the alkyne by fitting the prodrug areas versus time using eq. 1: Y=A exp(−kobst) eq. 1 where Y is the prodrug area, and t is time. The pseudo-first-order rate constant, kobs, was then plotted against the concentration of alkyne to yield the second-order rate constant using eq 2: kobs=k2[Alkyne] eq. 2 where k2 is the second-order rate constant.

HeLa cells = assay: Cytotoxicity studies in HeLa cells (MTT assay / crystal violet assay); assay type: cell-based; settings: for IC50: 48 h, read-out: IC50 in Hela cell line; for effect on cell viability: 20 μM alkyne alone, HeLa cells
Method: Cell cultures. HeLa cells (ATCC) were used in the following cell culture studies. HeLa cells were maintained in DMEM (Dulbecco's Modified Eagle's Medium) supplemented with 10% fetal bovine serum (MidSci; S01520HI), and 1% penicillin-streptomycin (Sigma-Aldrich; P4333) at 37° C. with 5% CO2.
Cytotoxicity studies. Test compound was dissolved in DMSO to afford a stock solution. The final concentration of DMSO in the cell culture was 1% (v/v) in PBS. HeLa cells were seeded in 96-well plates one day before the experiment. Different concentrations of prodrug was added into the cell culture. The cells were then incubated for 48 h at 37° C. with 5% CO2. The cell viability was tested by the MTT assay described in Levitz, S. M., et al. J Infect Dis 1985, 152, 938-945. Specifically, after 48 h of incubation, 5 mg/mL MTT (3-(4,5-dimethylthiazol-2-yl)-2,5-diphenyltetrazolium bromide) was added into the cell culture. After incubation for 4 h, the supernatant was removed and 100 μL DMSO was added into the wells containing the cells. After shaking gently for 3 min, absorbance at 605 nm was read by a plate reader.
Cytotoxicity studies using crystal violet assay. The test compound was dissolved in DMSO to afford a stock solution. The final concentration of DMSO in cell culture was 1% (v/v) in PBS. HeLa cells were seeded in 96-well plates one day before the experiment. Different concentrations of the test compound were added into the cell culture. The cells were then incubated for 48 h at 37° C. with 5% CO2. Cell viability was tested by the crystal violet assay. Specifically, after 48 h of incubation, the cells were fixed in 100% methanol for 10 min and stained for 20 min with a 1% crystal violet solution in 50% methanol, followed by 5 repeated washings with PBS. 50 μL of DMSO was added to each well. After 20 min of incubation, the plates were analyzed in a microplate reader at 595 nm.
Similar results were observed when the alkyne concentration was decreased to 10 μM. For example, the IC50 of TPP-Dox prodrug 1c was about 2 μM in the presence of 2b, while the IC50 for Dox prodrug 1b was well over 10 μM in the presence of 10 μM of the alkyne trigger 2a (FIG. 3a). As controls, both the IC50 values of 1c and 2b alone were higher than 40 μM, and the treatment of 20 μM of alkyne 2a or 2b alone had no effect on cell viability. […] Without such an enrichment, the reaction is expected to be slow, resulting in a lower level of active Dox being released. […] Thus, mitochondrial enrichment leads to triggered release of the drug. The same concept is applicable to the delivery of drugs through other targeting approaches such as receptor-mediated drug delivery.

[2] = Homo sapiens, HeLa, compound alone

SMILES | k2 at 37° C. (second order rate constant) [1] [M⁻¹ s⁻¹] | IC50 (HeLa cells; in the presence of 100 μM alkyne 2d) [µM] | effect on cell viability (HeLa cells) | IC50 (HeLa cells; [2]) [µM] | IC50 (HeLa cells; compound alone, listed as Alkyne 2b) [µM]
C#CCOc1ccc(-c2nnc(C(=O)O)nn2)cc1 [1a, 6-(4-(prop-2-yn-1-yloxy)phenyl)-1,2,4,5-tetrazine-3-carboxylic acid] | 0.25 | > 100 |  |  | 
O=C(O)c1ccc(CC2(O)C#CCCCCC2)cc1 (stereo not shown) [2a, 4-((1-hydroxycyclooct-2-yn-1-yl)methyl)benzoic acid] |  |  | no effect |  | 
O=C(NCCC[P+](c1ccccc1)(c1ccccc1)c1ccccc1)c1ccc(CC2(O)C#CCCCCC2)cc1.[Br-] (stereo not shown) [2b, (3-(4-((1-hydroxycyclooct-2-yn-1-yl)methyl)benzamido)propyl)-triphenylphosphonium bromide] |  |  | no effect | > 40 | > 50
COc1cccc2c1C(=O)c1c(O)c3c(c(O)c1C2=O)C[C@@](O)(C(=O)CO)C[C@@H]3O[C@H]1C[C@H](N)[C@H](O)[C@H](C)O1 [Dox, Doxorubicin, reference compound] |  |  |  | ~1 | 
